Test system: ÜBERGEWICHTIGEN FRAUEN
Assay: Three-year placebo-controlled prophylaxis study: incidence of diabetes mellitus in overweight persons with impaired oral glucose tolerance
Assay type: in vivo, Patienten
Conditions: for DIABETES MELLITUS (ERKRANKUNGSRATE AN DIABETES MELLITUS): number of cases (WHO definition), 2 X 3 mg tgl.
From the text: Es wurden 122 übergewichtigte Personen ausgesucht, die im Mittel 25 % Übergewicht und eine gestörte orale Glukosetoleranz hatten. Diese Patienten gaben nach Aufklärung ihr Einverständnis an dieser Studie über 3 Jahre teilzunehmen. Sie hatten bereits 5 bis 10 Versuche einer Gewichtsabnahme hinter sich, die alle erfolglos verlaufen waren. Ein Diabetes mellitus war nach der Definition des World Health Organization-Reports (Techn. Rep. Ser. 646, 1-80, 1980), bei diesen Patieten ausgeschlossen. Sie wurden in zwei gleich starke Gruppen eingeteilt, so daß nach Alter, Ausmaß der Störung des Glucose-Toleranz-Tests (OGTT) und Größe und Dauer des Übergewichts kein Unterschied bestand. Die Patienten wurden in halbjährlichen Abständen ambulant kontrolliert. Wie zu Beginn, wurden bei diesen Kontrollen folgende Blutwerte gemessen: Blutsenkung, Blutbild, Nüchternblutzucker, OGTT, Gewicht, Cholesterin und Triglyzeride, Serum Glutamat-Oxalat-Transaminase (SGOT), Serum Glutamat-Pyruvat Transaminase (SGPT). Damit wurden den Stoffwechesl beeinträchtigende Krankheiten ausgeschlossen.
Sie erste Gruppe erhielt 2 x 3 mg Captopril täglich, die zweite entsprechend Placebo. Die Patienten hatten die Auflage, keine den Stoffwech l beeinträchtigende Medikamente, z.B. Diuretika, β-Blocker ode dergleichen einzunehmen. In beiden Gruppen schieden über den Zeitraum von 3 Jahren 28 Patienten aus verschiede nen Gründen aus. Die Gruppen veränderten sich dadurch jedoch nicht so, daß sie statistisch nicht mehr auswertbar waren.

C[C@H](CS)C(=O)N1CCC[C@H]1C(=O)O [Captopril, 1-[(2S)-3-Mercapto-2-methylpropionyl]-L-prolin]
Erkrankungsrate an Diabetes mellitus (nach 3 Jahren, versus placebo, 2 x 3 mg täglich, p < 0,001 (Student's t-Test)): geringere Erkrankungsrate an Diabetes mellitus | DIABETES MELLITUS (ERKRANKUNGSRATE AN DIABETES MELLITUS) (ZEITRAUM 1985 -1 (start), 63 in group): 0 | DIABETES MELLITUS (ERKRANKUNGSRATE AN DIABETES MELLITUS) (ZEITRAUM 1986 - 2, 60 in group): 2 | DIABETES MELLITUS (ERKRANKUNGSRATE AN DIABETES MELLITUS) (ZEITRAUM 1987 - 2, 54 in group): 4 | DIABETES MELLITUS (ERKRANKUNGSRATE AN DIABETES MELLITUS) (ZEITRAUM 1988 - 1, 48 in group, placebo 11 of 46, p< 0,001): 4 | Verminderung dieses Risikos (an Diabetes mellitus zu erkranken) (risk groups (strongly overweight, older than 50 years; risk about 45 % over two years), 2 x 3 mg pro Tag): > 50%
